# From ChEMBL document CHEMBL1201862, “PubChem BioAssay data set” (2004)
#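 Results reflect a 48-hour exposure of cells in 96-well plates to compound at five concentrations. Abbreviation: GI50, concentration required for 50% inhibition of growth.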 The source made the active and inactive calls. No stated cut-off is given here; in the data, active = GI50 up to about 1.1 µM and inactive = higher.
# Experiments:
# Assay in all cases: NCI-60 cell line screen, 48 h
# ACHN = tested on: ACHN
# SK-MEL-28 = tested on: SK-MEL-28
# SW-620 = tested on: SW-620
# SF-295 = tested on: SF-295
# NCI-H23 = tested on: NCI-H23
# M14 = tested on: M14
# HOP-92 = tested on: HOP-92
# MDA-MB-231 = tested on: MDA-MB-231
# NCI-H226 = tested on: NCI-H226
# CCRF-CEM = tested on: CCRF-CEM
# HCT-15 = tested on: HCT-15
# RPMI-8226 = tested on: RPMI-8226
# SF-268 = tested on: SF-268
# UACC-257 = tested on: UACC-257
# COLO 205 = tested on: COLO 205
# TK-10 = tested on: TK-10
# IGROV-1 = tested on: IGROV-1
# SNB-75 = tested on: SNB-75
# MDA-N = tested on: MDA-N
# MDA-MB-435 = tested on: MDA-MB-435
SMILES,GI50 (ACHN),GI50 (SK-MEL-28),GI50 (SW-620),GI50 (SF-295),GI50 (NCI-H23),GI50 (M14),GI50 (HOP-92),GI50 (MDA-MB-231),GI50 (NCI-H226),GI50 (CCRF-CEM),GI50 (HCT-15),GI50 (RPMI-8226),GI50 (SF-268),GI50 (UACC-257),GI50 (COLO 205),GI50 (TK-10),GI50 (IGROV-1),GI50 (SNB-75),GI50 (MDA-N),GI50 (MDA-MB-435)
C/C=C/C1OC(O)(C(C)C(O)[C@H](C)C2OC(=O)/C(OC)=C/C(C)=C/[C@@H](C)[C@@H](O)[C@@H](C)C(O)C(C)C/C(C)=C/C=C/C2OC)C[C@@H](OC2CC(O)C(OC(N)=O)C(C)O2)C1C (stereo not given in full),< 0.01 µM (active),1.45 µM (inactive),< 0.01 µM (active),< 0.01 µM (active),< 0.01 µM (active),< 0.01 µM (active),< 0.01 µM (active),< 0.01 µM (active),< 0.01 µM (active),< 0.01 µM (active),< 0.01 µM,< 0.01 µM (active),< 0.01 µM (active),< 0.01 µM (active),< 0.01 µM (active),< 0.01 µM (active),< 0.01 µM (active),< 0.01 µM (active),< 0.01 µM (active),< 0.01 µM (active)
Oc1ccc2ccccc2c1/C=C/c1ccc2c(Br)cc(Br)c(O)c2n1,5.6 µM (inactive),12.8 µM (inactive),4.9 µM (inactive),4.32 µM (inactive),5.96 µM (inactive),7.38 µM (inactive),11.5 µM (inactive),5.58 µM (inactive),5.02 µM (inactive),2.38 µM (inactive),0.787 µM,4.06 µM (inactive),5.87 µM (inactive),8.49 µM (inactive),4.86 µM (inactive),11 µM (inactive),2.17 µM (inactive),15.2 µM (inactive),9.71 µM (inactive),11.8 µM (inactive)
CCCCCCCCP(=O)(O)OP(=O)(O)OCC1OC(n2ccc(N)nc2=O)C(O)C1O (stereo not given),> 100 µM (inactive),> 100 µM (inactive),> 100 µM (inactive),> 100 µM (inactive),> 100 µM (inactive),> 100 µM (inactive),> 100 µM (inactive),> 100 µM (inactive),> 100 µM (inactive),> 100 µM (inactive),> 100 µM,> 100 µM (inactive),> 100 µM (inactive),> 100 µM (inactive),> 100 µM (inactive),> 100 µM (inactive),> 100 µM (inactive),> 100 µM (inactive),> 100 µM (inactive),> 100 µM (inactive)
c1ccc(C(C2=Nc3cccc4cccc(c34)N2)c2ccccc2)cc1,19.3 µM (inactive),23.6 µM (inactive),47.3 µM (inactive),21.1 µM (inactive),28.1 µM (inactive),18.1 µM (inactive),18.7 µM (inactive),30.8 µM (inactive),31.6 µM (inactive),39.2 µM (inactive),25.1 µM,21.6 µM (inactive),24.4 µM (inactive),24.5 µM (inactive),18.9 µM (inactive),47.9 µM (inactive),33.9 µM (inactive),22.3 µM (inactive),23.4 µM (inactive),25.5 µM (inactive)
CC[C@](O)(CC(=O)O[C@H]1C(=O)O[C@@H]2C[C@H]3C(C)=CC(=O)[C@@H](O)[C@]3(C)[C@H]3[C@@]4(O)OC[C@]32[C@@H]1[C@@H](C)[C@H]4O)C(C)C,< 0.01 µM (active),< 0.01 µM (active),< 0.01 µM (active),< 0.01 µM (active),< 0.01 µM (active),< 0.01 µM (active),< 0.01 µM (active),< 0.01 µM (active),< 0.01 µM (active),< 0.01 µM (active),< 0.01 µM,< 0.01 µM (active),< 0.01 µM (active),< 0.01 µM (active),< 0.01 µM (active),< 0.01 µM (active),< 0.01 µM (active),< 0.01 µM (active),< 0.01 µM (active),< 0.01 µM (active)
COC(=O)c1cc(CC2Cc3cc4c(cc3C2)CCC4)cc2c1CCC2,> 100 µM (inactive),> 100 µM (inactive),> 100 µM (inactive),> 100 µM (inactive),> 100 µM (inactive),> 100 µM (inactive),88.9 µM (inactive),> 100 µM (inactive),> 100 µM (inactive),52.5 µM (inactive),67.5 µM,41 µM (inactive),> 100 µM (inactive),37.2 µM (inactive),> 100 µM (inactive),> 100 µM (inactive),97.1 µM (inactive),> 100 µM (inactive),60.3 µM (inactive),48 µM (inactive)
COc1ccccc1NC(=S)NN=C(C)c1cccc(C(C)=NNC(=S)Nc2ccccc2OC)n1,14.7 µM (inactive),79.4 µM (inactive),7.73 µM (inactive),26.8 µM (inactive),33.9 µM (inactive),5.06 µM (inactive),21.7 µM (inactive),5.16 µM (inactive),28.4 µM (inactive),4.78 µM (inactive),28.5 µM,24.6 µM (inactive),15.9 µM (inactive),25.8 µM (inactive),19.6 µM (inactive),0.18 µM (active),25.5 µM (inactive),94.6 µM (inactive),70.5 µM (inactive),23 µM (inactive)
CC(C)=CCC[C@@H](C)C1=C(Nc2ccccc2Cl)C(=O)C(C)=C(O)C1=O,2.26 µM (inactive),11 µM (inactive),4.71 µM (inactive),2.88 µM (inactive),2.84 µM (inactive),6.15 µM (inactive),6.82 µM (inactive),4.61 µM (inactive),4.69 µM (inactive),1.01 µM (active),2.38 µM,1.17 µM (inactive),3.85 µM (inactive),6.46 µM (inactive),2.84 µM (inactive),4.88 µM (inactive),2.45 µM (inactive),1.87 µM (inactive),4.5 µM (inactive),4.85 µM (inactive)
CC(=N\N)/C(C)=N/N=C(C)/C(C)=N/N=C(C)/C(C)=N/N,> 100 µM (inactive),> 100 µM (inactive),> 100 µM (inactive),> 100 µM (inactive),> 100 µM (inactive),> 100 µM (inactive),> 100 µM (inactive),> 100 µM (inactive),> 100 µM (inactive),> 100 µM (inactive),> 100 µM,> 100 µM (inactive),> 100 µM (inactive),> 100 µM (inactive),> 100 µM (inactive),> 100 µM (inactive),> 100 µM (inactive),> 100 µM (inactive),> 100 µM (inactive),> 100 µM (inactive)
C=CCC(CNC(=O)OCc1ccccc1)O[Si](C)(C)C(C)(C)C (stereo not given),33.6 µM (inactive),48 µM (inactive),38.1 µM (inactive),35.2 µM (inactive),55.5 µM (inactive),26.4 µM (inactive),26.2 µM (inactive),17.3 µM (inactive),25.9 µM (inactive),28.3 µM (inactive),35.9 µM,20 µM (inactive),45.3 µM (inactive),25.4 µM (inactive),16.6 µM (inactive),74.5 µM (inactive),27.4 µM (inactive),59.3 µM (inactive),34.8 µM (inactive),38.5 µM (inactive)
